Experimental findings from US6372797B1, “Treatment of menstrual function” (Knoll Pharmaceutical Company, priority 1999, dated 2002) are described below.

The target of experiment [1] is [3H]Noradenaline reuptake. The experiment is described as follows: in vitro [3H]noradrenaline reuptake inhibition in rat brain tissue. The experiment is classed as biochemical. The settings on record: means of ≧ 3 separate determinations.
Another experiment deals with [3H]Dopamine reuptake. The experiment is described as follows: in vitro [3H]dopamine reuptake inhibition in rat brain tissue. The experiment is classed as biochemical. The settings on record: means of ≧ 3 separate determinations.

Regarding `CC(NC(C)(C)C)C(=O)c1cccc(Cl)c1` (stereo not shown) [Bupropion], the Ki – broadly, a measure of affinity in units of concentration, obtained from inhibition or displacement – in experiment [1] came out at 2590 nM; in experiment [3H]Dopamine reuptake, 409 nM.
On to `COc1ccc(C(CN(C)C)C2(O)CCCCC2)cc1` (stereo not shown) [Venlafaxine], for which the Ki in experiment [1] is 196 nM; in experiment [3H]Dopamine reuptake, 2590 nM.
